Data: patent US9352049B2, “Ligand-therapeutic agent conjugates, silicon-based linkers, and methods for making and using them” (Albany Molecular Research, Inc., priority 2013, dated 2016)

Legend:
[1] = Cleavage study of silyl conjugates at pH 4.5 (1:1 THF:0.05 M acetate buffer, 37° C., HPLC); format: physicochemical; details: HPLC over 24 hours
Protocol: (§1) To study the release properties of the silyl conjugates, the conjugates were subject to hydrolysis conditions at both pH 7.4 and pH 4.5 to simulate blood and endosomes/lysosome environments, respectively.
The benzyl ester intermediates from Example 11 (step A), Example 12, Example 13, Example 14 (step A), and Example 15 were each dissolved in a 1:1 mixture of THF:0.05 M acetate buffer (pH 4.5) and heated to 37° C. with stirring. The mixture was analyzed with HPLC at T=1, 2, 3, 4, 5, 7 and 24 hours via Method B (see General Procedures in Example 1). Aliquots were quenched in a 1:1 acetonitrile:triethylamine solvent mixture to halt the hydrolysis reaction and allowed to stand up to 48 hours before HPLC analysis.

[2] = Cleavage study of silyl conjugates at pH 7.4 (THF:0.01 M PBS buffer, 37° C.); format: physicochemical; details: pH 7.4, 37° C., after 24 hours
Protocol: as §1
Example 12 and Example 15 were dissolved in THF:0.01 M PBS buffer (pH 7.4) and heated to 37° C. with stirring for over 20 hours. […] Additionally, Example 11 was trapped with methyl-3-mercaptopropionate to approximate a bioconjugate.

For CC[C@]1(O)CC2CN(CCc3c([nH]c4ccccc34)[C@@](C(=O)OC)(c3cc4c(cc3OC)N(C)[C@H]3[C@@](O)(C(=O)OC)[C@H](O[Si]5(CCCCC(=O)NCCOCCN6C(=O)CC(SCCC(=O)OC)C6=O)CCCCC5)[C@]5(CC)C=CCN6CC[C@]43[C@@H]65)C2)C1 (stereo partly drawn) [Example 19, (3aR,3a^1R,4R,5S,10bR)-methyl 3a-ethyl-9-((5S,7R,9S)-5-ethyl-5-hydroxy-9-(methoxycarbonyl)-2,4,5,6,7,8,9,10-octahydro-1H-3,7-methano[1]azacycloundecino[5,4-b]indol-9-yl)-5-hydroxy-8-methoxy-4-((1-(5-((2-(2-(3-((3-methoxy-3-oxopropyl)thio)-2,5-dioxopyrrolidin-1-yl)ethoxy)ethyl)amino)-5-oxopentyl)silinan-1-yl)oxy)-6-methyl-3a,3a^1,4,5,5a,6,11,12-octahydro-1H-indolizino[8,1-cd]carbazole-5-carboxylate], the “hydrolysis (release of desilylated parent vinca) in acidic media” value [1] was “undergo parent vinca release at a rate comparable to the corresponding benzyl ester from Example 11 (step A)” and the “desilylation at pH 7.4” value [2] was “no desilylation was observed”.
